The subject of one data set is steroid sulfatase. In words: Anti uterotrophic/anti steroid sulfatase activity in vivo. Further details: species or system rat. Conditions: ovariectomized Wistar female rats, E1S 50 μg/kg/day s.c., oral 1 mg/kg/day for 4 days; % of inhibition of the E1S induced stimulation. The protocol: Wistar female rats were ovariectomized and left to rest for 4 weeks. Prior to treatment, the absence of cyclicity was checked by vaginal smears. Animals were supplemented with estrone sulfate (EIS) at 50 μg/kg/day s.c., alone or combined with oral administration of potential sulfatase inhibitors, at 1 mg/kg/day for 4 days. The uteri were removed, freed of adjacent tissue and wet weighed (Table 3).
Estrone sulfatase activity is measured according to the method described by Purohit et al., with slight modifications. Briefly, uteri were thawed, weighed and homogenized. Aliquots of the supernatant were treated with dextran-coated charcoal and assayed for sulfatase. E1S activity is assessed after 30 min of incubation with 5 nM of ^3H-E1S and 20 μM of unlabelled E1S as substrate. Estrone sulfatase activity is expressed as pmol/h/mg protein and reported as percentage of inhibition vs E1S; for uterus weights, results are expressed as % of inhibition of the E1S induced stimulation

For a further data set, the target named is T1, human estrone sulfatase (Homo sapiens, UniProt P08842).
T1 construct: The JEG-3 cell line is intrinsically very rich in human estrone sulfatase; endogenous in cells; host or cells: JEG-3 (human placental choriocarcinoma)
T1 sequence (P08842 22-583): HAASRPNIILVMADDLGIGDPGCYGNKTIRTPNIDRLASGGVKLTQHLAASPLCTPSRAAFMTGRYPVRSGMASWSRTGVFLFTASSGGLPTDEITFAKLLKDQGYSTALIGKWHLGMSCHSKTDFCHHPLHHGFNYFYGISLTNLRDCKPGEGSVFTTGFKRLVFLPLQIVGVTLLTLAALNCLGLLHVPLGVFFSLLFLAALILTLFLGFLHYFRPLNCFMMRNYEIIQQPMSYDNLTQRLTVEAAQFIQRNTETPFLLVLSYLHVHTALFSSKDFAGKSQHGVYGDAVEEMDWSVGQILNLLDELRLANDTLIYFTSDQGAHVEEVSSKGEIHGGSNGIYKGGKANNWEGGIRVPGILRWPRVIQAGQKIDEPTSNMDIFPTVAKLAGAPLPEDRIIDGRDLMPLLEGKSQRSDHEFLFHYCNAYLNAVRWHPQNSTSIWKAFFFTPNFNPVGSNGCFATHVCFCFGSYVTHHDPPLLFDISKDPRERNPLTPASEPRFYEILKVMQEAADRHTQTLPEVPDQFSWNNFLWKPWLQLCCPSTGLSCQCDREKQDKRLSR
In words: Steroid (estrone) sulfatase activity alone in JEG-3 cells. Format: cell-based. Conditions: footnote b: sulfatase activity alone, nd: not detected, read-out: Sulfatase activity IC50 (nM) ± S.E.M. The procedure: (§1) The JEG-3 cell line is intrinsically very rich in human estrone sulfatase and therefore is a useful biological system to evaluate new steroid sulfatase inhibitors in vitro. Assays were carried out with cells in logarithmic growth phase on 96-well microplates. 24 h before studies, cells were seeded in decomplemented fetal calf serum (dFCS) supplemented medium. The medium was removed 24 h later and cells were rinsed with PBS to eliminate any trace of dFCS. Then, ^3H-E1S was added in dFCS free medium, followed by test compounds at concentrations ranging from 10^−12 M to 10^−5 M. After 4 h of treatment, the medium was transferred into 96-deep-well microplates and centrifuged at 200×g for 10 min to pellet cells before toluene extraction. A fraction of the medium was used for toluene extraction in order to separate the conjugated substrate from non-conjugated products. The radioactivity in the toluene phase was measured by liquid scintillation counting. In parallel, after cell solubilization in a ethylenediamine tetraacetate solution, DNA content was measured by a standard fluorimetric method using the Hoechst 33258 fluorochrome. Finally, estrone sulfatase activity was expressed in pmoles of ^3H-E1+^3H-E2 formed/4 hours/mg DNA and estrone sulfatase inhibition as a percentage of control activity without inhibitor.

The target in another data set is T2, human steroid sulfatase (Homo sapiens, UniProt P08842).
T2 construct: The JEG-3 cell line is intrinsically very rich in human estrone sulfatase; endogenous in cells; host or cells: JEG-3 (human placental choriocarcinoma)
T2 sequence (P08842 22-583): T1 sequence (P08842 22-583)
In words: Dual aromatase and steroid sulfatase activities in JEG-3 cells: sulfatase readout. The data set is classed as cell-based. Conditions: footnote c: dual aromatase and sulfatase activity, nd: not detected, read-out: Sulfatase activity IC50 (nM) ± S.E.M. The protocol: as §1
(§2) In order to evaluate the inhibitory potency of DASI compounds in parallel on both human aromatase and steroid sulfatase activities, a new in vitro model was set up using JEG-3 cells. The experimental conditions of the steroid sulfatase model previously described was adopted with slight modifications: the presence of the two substrates ^3-HE1S and 1β-^3H-androstenedione into the medium and an incubation period of 2 hours. Results were expressed in pmoles of product formed (^3H-E1+^3H-E2 or ^3H2O)/2 hours/mg DNA (Table 1).

For data set [1], the target named is T3, human aromatase (Homo sapiens, UniProt P11511).
T3 construct: The JEG-3 cell line, derived from a human placental choriocarcinoma, constitutively overexpresses human aromatase; endogenous in cells; host or cells: JEG-3 (human placental choriocarcinoma)
T3 sequence (P11511 1-503): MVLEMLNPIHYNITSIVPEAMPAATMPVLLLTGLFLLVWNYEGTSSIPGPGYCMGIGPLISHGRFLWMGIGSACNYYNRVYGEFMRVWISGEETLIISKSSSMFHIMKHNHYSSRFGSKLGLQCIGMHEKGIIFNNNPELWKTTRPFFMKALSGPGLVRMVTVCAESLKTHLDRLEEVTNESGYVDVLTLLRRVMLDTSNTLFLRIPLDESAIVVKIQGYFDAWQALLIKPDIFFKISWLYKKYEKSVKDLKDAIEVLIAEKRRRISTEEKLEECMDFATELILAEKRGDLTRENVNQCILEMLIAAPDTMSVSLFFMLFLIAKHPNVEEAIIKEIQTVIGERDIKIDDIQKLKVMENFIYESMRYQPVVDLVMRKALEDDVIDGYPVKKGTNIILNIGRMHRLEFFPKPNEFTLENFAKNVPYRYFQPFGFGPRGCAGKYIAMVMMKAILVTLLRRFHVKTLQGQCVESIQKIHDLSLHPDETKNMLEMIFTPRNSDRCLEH
As to the kind of experiment: Aromatase activity alone, tritiated water method in JEG-3 cells. The data set is classed as cell-based. The conditions noted are these: footnote a: aromatase activity alone, nd: not detected, read-out: Aromatase activity IC50 (nM) ± S.E.M. The procedure: The JEG-3 cell line, derived from a human placental choriocarcinoma, constitutively overexpresses human aromatase and represents a relevant model for assaying putative aromatase inhibitors in vitro. Aromatase activity was determined by the tritiated water method. In brief, cells were first seeded into 96-well microplates in decomplemented fetal calf serum (dFCS) supplemented medium. 24 hours later, cells were rinsed and fresh medium containing 1β-^3H-androstenedione as aromatase substrate was added together with test compounds at concentrations ranging from 10^−12 M to 10^−5 M. After 2 hours of incubation, a fraction of the medium was transferred to homologous new 96-well microplates and a dextran-coated charcoal solution was added to each well. Following standing on ice for 10 minutes, microplates were centrifuged (1500 g; 4° C.). All steroids, including the radioactive substrate and the newly biosynthesized estrogens, were adsorbed on charcoal; only ^3H-water specifically formed during aromatisation of 1β-^3H-androstenedione, remained in the supernatant. The radioactivity in the supernatant was measured by liquid scintillation counting. In parallel, cell solubilization was performed in ethylenediamine tetraacetate solution. […] Finally, aromatase activity was expressed in fmoles of ^3H-water formed/2 hours/μg DNA and aromatase inhibition as a percentage of control activity without inhibitor.

A further data set concerns Ishikawa cells. As to the kind of experiment: Alkaline phosphatase activity in Ishikawa cells (estrogenic potency). The data set is classed as cell-based. The protocol:
Ishikawa cells were plated into 96-well microplates 48 hours before studies. The next day, the medium was replaced by phenol red free medium supplemented with 5% charcoal-stripped dFCS. 24 hours later, the medium was renewed and compounds were added to the plated cells and incubated for an additional four-day period. […] At the end of the incubation period, alkaline phosphatase activity (APase) was assayed by a method involving the hydrolysis of p-nitrophenyl phosphate to p-nitrophenol and spectrophotometric determination of the product at 405 nm.
In brief, the microplates were first rinsed twice with cold phosphate buffered solution and then placed at −80° C. for at least 15 minutes. After thawing at room temperature, 50 μl ice-cold solution containing 5 mM p-nitrophenyl phosphate was added to each well. After a 15 to 60 minute incubation period at room temperature, the intensity of the yellow color generated by the production of p-nitrophenol was measured into each well at 405 nm.
For each tested concentration, APase activity, reflected by absorbance, was first expressed as fold increase over control (FI) and then as percentage of E2 activity (10^-8 M) chosen equal to 100%.

For data set [2], the target named is T3, human aromatase. As to the kind of experiment: Dual aromatase and steroid sulfatase activities in JEG-3 cells: aromatase readout. Format: cell-based. The conditions noted are these: footnote c: dual aromatase and sulfatase activity, nd: not detected, read-out: Aromatase activity IC50 (nM) ± S.E.M. The procedure:
as §1, with “Assays” for “The JEG-3 cell line is intrinsically very rich in human estrone sulfatase and therefore is a useful biological system to evaluate new steroid sulfatase inhibitors in vitro. Assays”, “In parallel, after cell solubilization in a ethylenediamine tetraacetate solution, DNA content was measured by a standard fluorimetric method using the Hoechst 33258 fluorochrome.” left out
as §2

The target in data set [3] is human carbonic anhydrase II (Homo sapiens, UniProt P00918). In words: Human carbonic anhydrase II activity (p-nitrophenyl acetate, colorimetric). Format: biochemical. The conditions noted are these: read-out: Human carbonic anhydrase II activity IC50 (nm) ± S.E.M. The protocol:
Briefly, in this assay, human carbonic anhydrase II catalyses the conversion of p-nitrophenyl acetate into pnitrophenol. The potential inhibitory effect of test compounds was evaluated by colorimetric determination of prnitrophenol produced during the enzymatic reaction. The optical density levels obtained without inhibitor will be referred to as “total activity”. The levels obtained without Inhibitor and without the enzyme will be referred to as “blank” in order to assess any interference with the substrate during the assay (Table 2).

The subject of data set [4] is aromatase. In words: Inhibition of estradiol peak, in vivo aromatase inhibition model. Further details: species or system rat. Conditions: female rats, 24 hours after one oral administration. The procedure: One hundred IOPS Wistar female rats, weighing 180 to 200 g, were accommodated by four in stainless steel mesh cages. […] Vaginal smears were performed for each animal, each morning, in order to establish the different phases of cycle. […] Starting at 4.00 pm, animals received an oral administration of formulations. 24 hours later, samples of serum were collected and estradiol level were determined as previously described (Table 4).

The subject of data set [5] is aromatase. Conditions: 3 μg/kg, 24 hours after one single oral administration in female rats; cited from earlier work.

Each structure is given as a SMILES string.

As a reminder, the IC50 is the point on the concentration scale where inhibition reaches its midpoint. Broadly, the melting point is the temperature of the solid-liquid transition.

Consider `NS(=O)(=O)Oc1ccc2c3c(c(=O)oc2c1)CCCCC3` [6,6,7 COUMATE, 6,6,7-COUMATE, reference compound], for which, in the data set on steroid sulfatase, the “% inhibition (uterus weight)” value came to 81%.

For the molecule `NS(=O)(=O)Oc1ccc2c(c1)S(=O)(=O)C=C2CC1CCCCCC1` [A*, sulfamic acid, 3-cycloheptylmethylbenzothiophen-6-yl-1,1-dioxide-ester, reference compound], the 50% inhibitory concentration (IC50) is 2.5 ± 0.5 nM at human estrone sulfatase and 3.6 ± 0.8 nM on human steroid sulfatase.

Take `N#Cc1ccc(N(Cc2ccc(OS(N)(=O)=O)cc2)n2ccnc2)cc1` [Ex 43, Sulfamic acid-4-{[N-(4-cyanophenyl)-N-(1H-imidazol-1yl)amino]methyl}phenyl ester]: the melting point amounted to 172 °C. Besides, the IC50 on human aromatase [1] was determined as 0.57 ± 0.16 nM. Also, on human estrone sulfatase, the IC50 is about 10 nM. Moreover, the “estrogenicity in vitro (in words)” value in the data set with Ishikawa cells is on record as “not estrogenic”.

As to `COc1cc(CN(c2ccc(C#N)cc2)n2ccnc2)ccc1OS(N)(=O)=O` [Ex 46, Sulfamic acid 2-methoxy-4-{[N-(4-cyanophenyl)-N-(1H-imidazol-1yl)amino]methyl}phenyl ester], the melting point is 211 °C. For the same molecule, at human aromatase [1], the IC50 came out at 0.79 ± 0.26 nM. Further, the IC50 on human estrone sulfatase is 13.8 ± 2.5 nM. Also, in the data set on Ishikawa cells, the “estrogenicity in vitro (in words)” value is listed as “not estrogenic”.

`N#Cc1ccc(N(Cc2ccc3c(c2)C=NS(=O)(=O)O3)n2ccnc2)cc1` [Ex 48, 4-[N-[(2,2-dioxido-1,2,3-benzoxathiazin-6-yl)methyl]-N-(1H-imidazol-1-yl)amino]benzonitrile] yielded a melting point of 180 °C. Further, the IC50 on human aromatase [1] came to 0.82 ± 0.12 nM. Also, the IC50 at human estrone sulfatase came out at 2660 ± 257 nM.

In turn, `N#Cc1ccc(N(CCOc2ccc(OS(N)(=O)=O)cc2)n2ccnc2)cc1` [Ex 51, Sulfamic acid 4-{2-[N-(4-cyanophenyl)-N-(1H-imidazol-1yl)amino]ethoxy}phenyl ester] displayed a melting point of 174 °C. Further, at human aromatase [2], the IC50 is 0.34 ± 0.13 nM. For the same molecule, the IC50 on human steroid sulfatase worked out at 597 ± 67.4 nM. The concentration for half-maximal inhibition (IC50) in data set [3] was 6.5 ± 0.9 nM.

Take `CC(C)(C#N)c1cc(Cn2cncn2)cc(C(C)(C)C#N)c1` [anastrozole, reference compound]: the “% inhibition (estradiol peak)” value with aromatase [4] is reported as 56%. In addition, the “estradiol levels (in words)” value in the data set with aromatase [5] is reported as “significantly inhibits”.

The values are drawn from patent US8476455B2, “1-N-phenyl-amino-1h-imidazole derivatives and pharmaceutical compositions containing them” (Laboratoire Theramex, priority 2003, dated 2013).
